Laboratory results published in patent publication US8987195B2 (priority 2012, dated 2015).
Like-named read-outs stand apart in the source and are kept apart here.

Columns and labels:
[1] = biological target: HCV NS3/4A protease genotype 1b (Hepatitis C virus genotype 1b, UniProt P26663); assay: HCV NS3/4A protease time-resolved fluorescence (TRF) assay, Ki against genotype 1b; type: biochemical; conditions: IC50 [gt-1b] (nM), NS3/4A genotype 1b, enzyme 0.2 nM
Outline: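 First, protease (genotype 1b 0.2 nM, A156T 0.4 nM, genotype 3a 0.025 nM) is preincubated 30 min with inhibitor. Next, 25 nM TRF substrate starts the reaction, run 2.5 h at room temperature. Finally, europium fluorescence is read and Ki calculated from IC50.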

HCV genotype 1b replicon = assay: HCV replicon assay, genotype 1b replicon EC50; type: cell-based, Hepatitis C virus; conditions: Hepatitis C virus, genotype 1b replicon, read-out: EC50 [gt-1b]
Outline: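 Readout was replicon RNA copy number, by 32P-probe protection or TaqMan normalized to cellular cyclophilin A RNA, or luciferase activity for luciferase:Neo^r fusion lines. Cells were exposed to serially diluted compound for 24-48 hours without G418, then washed and lysed. EC50 derived from four-parameter fit relative to DMSO.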

Structure (SMILES): Cc1nc2cc(F)c(F)cc2c2c1O[C@]1(CC2)C[C@H]2C(=O)N[C@]3(C(=O)NS(=O)(=O)C4(C)CC4)C[C@H]3/C=C\CCCCC[C@H](NC(=O)OCC(C)C)C(=O)N2C1 [Example 201, 2-methylpropyl [(2R,6S,12Z,13aS,14aR,16aS)-8′,9′-difluoro-5′-methyl-14a-{[(1-methylcyclopropyl)sulfonyl]carbamoyl}-5,16-dioxo-1,1′,2′,5,6,7,8,9,10,11,13a,14,14a,15,16,16a-hexadecahydrospiro[cyclopropa[e]pyrrolo[1,2-a][1,4]diazacyclopentadecine-2,3′-pyrano[2,3-c]quinolin]-6-yl]carbamate]
- IC50 ([1]; K+ salt): 0.007 nM
- EC50 (HCV genotype 1b replicon; K+ salt): 0.91 nM

Structure (SMILES): Cc1nc2cc(F)c(F)cc2c2c1O[C@]1(CC2)C[C@H]2C(=O)N[C@]3(C(=O)NS(=O)(=O)C4(C)CC4)C[C@H]3/C=C\CCCCC[C@H](NC(=O)OCC(C)(C)C)C(=O)N2C1 [Example 202, 2,2-dimethylpropyl [(2R,6S,12Z,13aS,14aR,16aS)-8′,9′-difluoro-5′-methyl-14a-{[(1-methylcyclopropyl)sulfonyl]carbamoyl}-5,16-dioxo-1,1′,2′,5,6,7,8,9,10,11,13a,14,14a,15,16,16a-hexadecahydrospiro[cyclopropa[e]pyrrolo[1,2-a][1,4]diazacyclopentadecine-2,3′-pyrano[2,3-c]quinolin]-6-yl]carbamate]
- IC50 ([1]; K+ salt): 0.009 nM
- EC50 (HCV genotype 1b replicon; K+ salt): 1.43 nM

Structure (SMILES): COc1ccc2nc(C)c3c(c2c1)CC[C@]1(C[C@H]2C(=O)N[C@]4(C(=O)NS(=O)(=O)C5(C)CC5)C[C@H]4/C=C\CCCCC[C@H](NC(=O)OCC(C)(C)C)C(=O)N2C1)O3 [Example 205, 2,2-dimethylpropyl [(2R,6S,12Z,13aS,14aR,16aS)-9′-methoxy-5′-methyl-14a-{[(1-methylcyclopropyl)sulfonyl]carbamoyl}-5,16-dioxo-1,1′,2′,5,6,7,8,9,10,11,13a,14,14a,15,16,16a-hexadecahydrospiro[cyclopropa[e]pyrrolo[1,2-a][1,4]diazacyclopentadecine-2,3′-pyrano[2,3-c]quinolin]-6-yl]carbamate]
- IC50 ([1]; K+ salt): 0.005 nM
- EC50 (HCV genotype 1b replicon; K+ salt): 0.647 nM

Structure (SMILES): COc1ccc2nc(C)c3c(c2c1)CC[C@]1(C[C@H]2C(=O)N[C@]4(C(=O)NS(=O)(=O)C5(C)CC5)C[C@H]4/C=C\CCCCC[C@H](NC(=O)OC4CCCCC4)C(=O)N2C1)O3 [Example 206, cyclohexyl [(2R,6S,12Z,13aS,14aR,16aS)-9′-methoxy-5′-methyl-14a-{[(1-methylcyclopropyl)sulfonyl]carbamoyl}-5,16-dioxo-1,1′,2′,5,6,7,8,9,10,11,13a,14,14a,15,16,16a-hexadecahydrospiro[cyclopropa[e]pyrrolo[1,2-a][1,4]diazacyclopentadecine-2,3′-pyrano[2,3-c]quinolin]-6-yl]carbamate]
- IC50 ([1]; K+ salt): 0.005 nM
- EC50 (HCV genotype 1b replicon; K+ salt): 0.808 nM

Structure (SMILES): COCC(C)(C)OC(=O)N[C@H]1CCCCC/C=C\[C@@H]2C[C@@]2(C(=O)NS(=O)(=O)C2(C)CC2)NC(=O)[C@@H]2C[C@]3(CCc4c(c(C)nc5ccc(OC(F)(F)F)cc45)O3)CN2C1=O [Example 207, 1-methoxy-2-methylpropan-2-yl [(2R,6S,12Z,13aS,14aR,16aS)-5′-methyl-14a-{[(1-methylcyclopropyl)sulfonyl]carbamoyl}-5,16-dioxo-9′-(trifluoromethoxy)-1,1′,2′,5,6,7,8,9,10,11,13a,14,14a,15,16,16a-hexadecahydrospiro[cyclopropa[e]pyrrolo[1,2-a][1,4]diazacyclopentadecine-2,3′-pyrano[2,3-c]quinolin]-6-yl]carbamate]
- IC50 [1]: 0.007 nM
- EC50 (HCV genotype 1b replicon): 1.08 nM

Structure (SMILES): COCCC(C)(C)OC(=O)N[C@H]1CCCCC/C=C\[C@@H]2C[C@@]2(C(=O)NS(=O)(=O)C2(C)CC2)NC(=O)[C@@H]2C[C@]3(CCc4c(c(C)nc5ccc(OC(F)(F)F)cc45)O3)CN2C1=O [Example 208, 4-methoxy-2-methylbutan-2-yl [(2R,6S,12Z,13aS,14aR,16aS)-5′-methyl-14a-{[(1-methylcyclopropyl)sulfonyl]carbamoyl}-5,16-dioxo-9′-(trifluoromethoxy)-1,1′,2′,5,6,7,8,9,10,11,13a,14,14a,15,16,16a-hexadecahydrospiro[cyclopropa[e]pyrrolo[1,2-a][1,4]diazacyclopentadecine-2,3′-pyrano[2,3-c]quinolin]-6-yl]carbamate]
- IC50 [1]: 0.009 nM
- EC50 (HCV genotype 1b replicon): 2.05 nM

Structure (SMILES): COc1ccc2nc(C(C)C)c3c(c2c1)C(F)(F)C[C@]1(C[C@H]2C(=O)N[C@]4(C(=O)NS(=O)(=O)C5(C)CC5)C[C@H]4/C=C\CCCCC[C@H](NC(=O)OC4CCCC4)C(=O)N2C1)O3 [Example 210, cyclopentyl [(2S,6S,12Z,13aS,14aR,16aS)-1′,1′-difluoro-9′-methoxy-14a-{[(1-methylcyclopropyl)sulfonyl]carbamoyl}-5,16-dioxo-5′-(propan-2-yl)-1,1′,2′,5,6,7,8,9,10,11,13a,14,14a,15,16,16a-hexadecahydrospiro[cyclopropa[e]pyrrolo[1,2-a][1,4]diazacyclopentadecine-2,3′-pyrano[2,3-c]quinolin]-6-yl]carbamate]
- IC50 [1]: 0.008 nM
- EC50 (HCV genotype 1b replicon): 2.38 nM

Structure (SMILES): COc1ccc2nc(C(C)C)c3c(c2c1)C(F)(F)C[C@]1(C[C@H]2C(=O)N[C@]4(C(=O)NS(=O)(=O)C5(C)CC5)C[C@H]4/C=C\CCCCC[C@H](NC(=O)OCC(C)C)C(=O)N2C1)O3 [Example 211, 2-methylpropyl [(2S,6S,12Z,13aS,14aR,16aS)-1′,1′-difluoro-9′-methoxy-14a-{[(1-methylcyclopropyl)sulfonyl]carbamoyl}-5,16-dioxo-5′-(propan-2-yl)-1,1′,2′,5,6,7,8,9,10,11,13a,14,14a,15,16,16a-hexadecahydrospiro[cyclopropa[e]pyrrolo[1,2-a][1,4]diazacyclopentadecine-2,3′-pyrano[2,3-c]quinolin]-6-yl]carbamate]
- IC50 [1]: 0.006 nM
- EC50 (HCV genotype 1b replicon): 3.54 nM

Structure (SMILES): COc1ccc2nc(C(F)(F)F)c3c(c2c1)CC[C@]1(C[C@H]2C(=O)N[C@]4(C(=O)NS(=O)(=O)C5(C)CC5)C[C@H]4/C=C\CCCCC[C@H](NC(=O)OC4(C)CC4)C(=O)N2C1)O3 [Example 216, 1-methylcyclopropyl [(2R,6S,12Z,13aS,14aR,16aS)-9′-methoxy-14a-{[(1-methylcyclopropyl)sulfonyl]carbamoyl}-5,16-dioxo-5′-(trifluoromethyl)-1,1′,2′,5,6,7,8,9,10,11,13a,14,14a,15,16,16a-hexadecahydrospiro[cyclopropa[e]pyrrolo[1,2-a][1,4]diazacyclopentadecine-2,3′-pyrano[2,3-c]quinolin]-6-yl]carbamate]
- IC50 [1]: 0.013 nM
- EC50 (HCV genotype 1b replicon): 6.43 nM

Structure (SMILES): COc1ccc2nc(C(F)(F)F)c3c(c2c1)CC[C@]1(C[C@H]2C(=O)N[C@]4(C(=O)NS(=O)(=O)C5(C)CC5)C[C@H]4/C=C\CCCCC[C@H](NC(=O)OC4CCCC4)C(=O)N2C1)O3 [Example 217, cyclopentyl [(2R,6S,12Z,13aS,14aR,16aS)-9′-methoxy-14a-{[(1-methylcyclopropyl)sulfonyl]carbamoyl}-5,16-dioxo-5′-(trifluoromethyl)-1,1′,2′,5,6,7,8,9,10,11,13a,14,14a,15,16,16a-hexadecahydrospiro[cyclopropa[e]pyrrolo[1,2-a][1,4]diazacyclopentadecine-2,3′-pyrano[2,3-c]quinolin]-6-yl]carbamate]
- IC50 [1]: 0.024 nM
- EC50 (HCV genotype 1b replicon): 10.3 nM

Structure (SMILES): Cc1nc2ccc(F)cc2c2c1O[C@]1(CC2)C[C@H]2C(=O)N[C@]3(C(=O)NS(=O)(=O)C4(C)CC4)C[C@H]3/C=C\CCCCC[C@H](NC(=O)OCC(C)C)C(=O)N2C1 [Example 218, 2-methylpropyl [(2R,6S,12Z,13aS,14aR,16aS)-9′-fluoro-5′-methyl-14a-{[(1-methylcyclopropyl)sulfonyl]carbamoyl}-5,16-dioxo-1,1′,2′,5,6,7,8,9,10,11,13a,14,14a,15,16,16a-hexadecahydrospiro[cyclopropa[e]pyrrolo[1,2-a][1,4]diazacyclopentadecine-2,3′-pyrano[2,3-c]quinolin]-6-yl]carbamate]
- IC50 [1]: 0.005 nM
- EC50 (HCV genotype 1b replicon): 2.15 nM

Structure (SMILES): Cc1nc2ccc(F)cc2c2c1O[C@]1(CC2)C[C@H]2C(=O)N[C@]3(C(=O)NS(=O)(=O)C4(C)CC4)C[C@H]3/C=C\CCCCC[C@H](NC(=O)OC3CCCC3)C(=O)N2C1 [Example 219, cyclopentyl [(2R,6S,12Z,13aS,14aR,16aS)-9′-fluoro-5′-methyl-14a-{[(1-methylcyclopropyl)sulfonyl]carbamoyl}-5,16-dioxo-1,1′,2′,5,6,7,8,9,10,11,13a,14,14a,15,16,16a-hexadecahydrospiro[cyclopropa[e]pyrrolo[1,2-a][1,4]diazacyclopentadecine-2,3′-pyrano[2,3-c]quinolin]-6-yl]carbamate]
- IC50 [1]: 0.004 nM
- EC50 (HCV genotype 1b replicon): 1.2 nM

Structure (SMILES): Cc1nc2ccc(Cl)cc2c2c1O[C@]1(CC2)C[C@H]2C(=O)N[C@]3(C(=O)NS(=O)(=O)C4(C)CC4)C[C@H]3/C=C\CCCCC[C@H](NC(=O)OCC3CCC3)C(=O)N2C1 [Example 221, cyclobutylmethyl [(2R,6S,12Z,13aS,14aR,16aS)-9′-chloro-5′-methyl-14a-{[(1-methylcyclopropyl)sulfonyl]carbamoyl}-5,16-dioxo-1,1′,2′,5,6,7,8,9,10,11,13a,14,14a,15,16,16a-hexadecahydrospiro[cyclopropa[e]pyrrolo[1,2-a][1,4]diazacyclopentadecine-2,3′-pyrano[2,3-c]quinolin]-6-yl]carbamate]
- IC50 [1]: 0.008 nM
- EC50 (HCV genotype 1b replicon): 11.6 nM
